Laboratory results from the supplement of paper PMC10307832.

Tests used:
Experiment in all cases: relative viability (nuclei count vs DMSO), 5 days (fraction); higher = more cells survive
[1] = compound: C[C@@H](C(=O)N[C@@H](C1CCCCC1)C(=O)N2CCC[C@H]2C(=O)N[C@@H]3[C@@H](CC4=CC=CC=C34)OCC#CC#CCO[C@@H]5CC6=CC=CC=C6[C@@H]5NC(=O)[C@@H]7CCCN7C(=O)[C@H](C8CCCCC8)NC(=O)[C@H](C)NC)NC [AZD5582] + C[C@]1(O)C[C@@H](c2nc(-c3ccc4ccc(-c5ccccc5)nc4c3)c3c(N)nccn32)C1 [Linsitinib] (partner 1 µM)
Method in brief: (§1)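 Relative viability equals treated-well nuclei counts divided by vehicle-well nuclei counts. Counts came from 4× images of lung cancer cell lines grown in 1536-well plates for 5 days after pin-tool dosing on the day after seeding. Dosing used one drug alone or a fixed anchor-drug dose plus five library-drug doses (not always all listed) in √10 steps, and values are medians of duplicate plates.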

[2] = compound: Cn1nnc2c(C(N)=O)ncn2c1=O [Temozolomide] + CC(=O)c1c(C)c2cnc(Nc3ccc(N4CCNCC4)cn3)nc2n(C2CCCC2)c1=O [Palbociclib] (partner 0.5 µM)
Method in brief: as §1

[3] = compound: C[C@@H](C(=O)N[C@@H](C1CCCCC1)C(=O)N2CCC[C@H]2C(=O)N[C@@H]3[C@@H](CC4=CC=CC=C34)OCC#CC#CCO[C@@H]5CC6=CC=CC=C6[C@@H]5NC(=O)[C@@H]7CCCN7C(=O)[C@H](C8CCCCC8)NC(=O)[C@H](C)NC)NC [AZD5582] + CC(C)C[C@H](NC(=O)[C@H](Cc1ccccc1)NC(=O)c1cnccn1)B(O)O [Bortezomib] (partner 0.002 µM)
Method in brief: as §1

[4] = compound: Cn1nnc2c(C(N)=O)ncn2c1=O [Temozolomide] + Cc1nc(Nc2ncc(C(=O)Nc3c(C)cccc3Cl)s2)cc(N2CCN(CCO)CC2)n1 [Dasatinib] (partner 0.075 µM)
Method in brief: as §1

| Cell Line | relative viability ([1]; first compound 0.001581 µM) | relative viability ([1]; first compound 0.005 µM) | relative viability ([1]; first compound 0.01581 µM) | relative viability ([1]; first compound 0.05 µM) | relative viability ([2]; first compound 0.2 µM) | relative viability ([2]; first compound 0.6325 µM) | relative viability ([2]; first compound 2 µM) | relative viability ([2]; first compound 6.325 µM) | relative viability ([2]; first compound 20 µM) | relative viability ([3]; first compound 0.001581 µM) | relative viability ([3]; first compound 0.005 µM) | relative viability ([3]; first compound 0.01581 µM) | relative viability ([3]; first compound 0.05 µM) | relative viability ([4]; first compound 0.2 µM) | relative viability ([4]; first compound 0.6325 µM) | relative viability ([4]; first compound 2 µM) | relative viability ([4]; first compound 6.325 µM) | relative viability ([4]; first compound 20 µM) |
| --- | --- | --- | --- | --- | --- | --- | --- | --- | --- | --- | --- | --- | --- | --- | --- | --- | --- | --- |
| BEN | 0.718 | 1.01 | 0.91 | 1.09 | 0.483 | 0.466 | 0.469 | 0.487 | 0.471 | 0.786 | 0.87 | 0.911 | 0.579 | 0.285 | 0.356 | 0.31 | 0.257 | 0.263 |
| CAL-12T | 0.665 | 0.656 | 0.775 | 0.544 | 0.285 | 0.568 | 0.608 | 0.484 | 0.405 | 0.777 | 0.746 | 0.448 | 0.668 | 0.444 | 0.455 | 0.427 | 0.381 | 0.346 |
| COR-L23 | 0.937 | 0.957 | 0.913 | 1.16 | 0.383 | 0.398 | 0.311 | 0.266 | 0.269 | 0.942 | 1.02 | 1.07 | 1.09 | 0.635 | 0.516 | 0.542 | 0.461 | 0.6 |
| COR-L 105 | 0.923 | 1.02 | 0.909 | 1.17 | 0.433 | 0.446 | 0.402 | 0.383 | 0.33 | 0.768 | 0.877 | 0.69 | 0.827 | 0.285 | 0.358 | 0.481 | 0.313 | 0.188 |
| EKVX | 0.872 | 1.12 | 0.875 | 1.14 |  | 0.322 | 0.292 | 0.323 | 0.223 | 1.02 | 1.02 | 0.934 | 0.575 |  | 0.575 | 0.55 | 0.782 | 0.352 |
| EMC-BAC-2 | 0.768 | 0.871 | 0.831 | 0.564 | 0.563 | 0.534 | 0.542 | 0.511 | 0.514 | 1.01 | 1.04 | 1.02 | 0.354 | 0.336 | 0.368 | 0.368 | 0.316 | 0.325 |
| EPLC-272H | 0.624 | 0.717 | 0.984 | 0.229 | 0.319 | 0.337 | 0.356 | 0.321 | 0.299 | 0.833 | 0.396 | 0.87 | 0.277 | 0.368 | 0.411 | 0.413 | 0.337 | 0.267 |
| H3255 | 0.81 | 0.975 | 0.839 | 0.893 |  | 0.315 | 0.302 | 0.312 | 0.297 | 0.823 | 0.879 | 0.385 | 0.552 |  | 0.406 | 0.283 | 0.263 | 0.202 |
| HARA | 1.01 | 0.897 | 0.951 | 0.867 |  | 0.307 | 0.303 | 0.302 | 0.233 | 1.09 | 1.11 | 1.06 | 1.07 | 0.238 | 0.301 | 0.309 | 0.29 | 0.23 |
